Source: the NIST ThermoML archive (doi:10.1021/je901020a)

How the values were obtained:
[1] = refractive index (Na D-line) (dimensionless); xn = mol fraction of the nth substance listed; conditions: 101 kPa, Liquid, Standard Abbe refractometry
[2] = xn = mol fraction of the nth substance listed; conditions: 101 kPa, Liquid; for speed of sound: Pulse-echo method

C1CCCCCCC1 [cyclooctane] + Cc1cccc(C)c1
Conditions	mass density, [2] [kg/m3]	refractive index, [1]	speed of sound, [2] [m/s]
298.15 K, x1 = 0.0545	857.4	1.49186	1322
298.15 K, x1 = 0.0993	855.5	1.48961	1324
298.15 K, x1 = 0.2059	851.1	1.4845	1328
298.15 K, x1 = 0.3074	847.4	1.4799	1333
298.15 K, x1 = 0.3933	844.4	1.47623	1338
298.15 K, x1 = 0.5031	841	1.47176	1346
298.15 K, x1 = 0.6002	838.2	1.46806	1353
298.15 K, x1 = 0.6993	835.9	1.46461	1361
298.15 K, x1 = 0.8198	833.5	1.46072	1372
298.15 K, x1 = 0.8909	832.4	1.45869	1379
298.15 K, x1 = 0.9503	831.8	1.45714	1385
298.15 K, x1 = 1	831.5	1.45598	1391
313.15 K, x1 = 0.0506	844.7	1.48423	1260
313.15 K, x1 = 0.0888	843.1	1.48242	1262
313.15 K, x1 = 0.1861	839.3	1.47779	1265
313.15 K, x1 = 0.2924	835.4	1.47308	1270
313.15 K, x1 = 0.3795	832.4	1.46944	1275
313.15 K, x1 = 0.487	829.1	1.46522	1282
313.15 K, x1 = 0.5832	826.4	1.46159	1289
313.15 K, x1 = 0.6823	824	1.45808	1296
313.15 K, x1 = 0.7874	821.9	1.45469	1305
313.15 K, x1 = 0.8879	820.3	1.45169	1315
313.15 K, x1 = 0.9389	819.7	1.45047	1320
313.15 K, x1 = 1	819.2	1.44877	1326

Cc1cccc(C)c1 [1,3-dimethylbenzene] + C1CCCC1
x2 = 0
Conditions	mass density, [2] [kg/m3]	refractive index, [1]	speed of sound, [2] [m/s]
298.15 K	859.8	1.49466	1321
313.15 K	846.9	1.48653	1259

Cc1ccccc1C [1,2-dimethylbenzene] + C1CCCCCCC1
x2 = 0
Conditions	mass density, [2] [kg/m3]	refractive index, [1]	speed of sound, [2] [m/s]
298.15 K	875.4	1.50262	1350
313.15 K	862.9	1.49466	1289

C1CCCCC1 [cyclohexane] + Cc1ccc(C)cc1
x1 = 1
Conditions	mass density, [2] [kg/m3]	refractive index, [1]	speed of sound, [2] [m/s]
298.15 K	773.9	1.4236	1255
313.15 K	759.6	1.41516	1182

C1CCCCCCC1 [cyclooctane] + Cc1cc(C)cc(C)c1
Conditions	mass density, [2] [kg/m3]	refractive index, [1]	speed of sound, [2] [m/s]
298.15 K, x1 = 0.0496	858.9	1.49453	1338
298.15 K, x1 = 0.1026	856.8	1.49198	1339
298.15 K, x1 = 0.2035	852.7	1.48725	1341
298.15 K, x1 = 0.307	848.8	1.48253	1345
298.15 K, x1 = 0.4062	845.2	1.47807	1349
298.15 K, x1 = 0.5042	841.9	1.47384	1354
298.15 K, x1 = 0.598	839	1.46995	1359
298.15 K, x1 = 0.696	836.2	1.46606	1366
298.15 K, x1 = 0.8308	833.3	1.46115	1376
298.15 K, x1 = 0.8926	832.3	1.45905	1381
298.15 K, x1 = 0.9484	831.7	1.45738	1386
298.15 K, x1 = 1	831.5	1.45598	1391
313.15 K, x1 = 0.0517	846.6	1.48694	1277
313.15 K, x1 = 0.0872	845.2	1.48532	1278
313.15 K, x1 = 0.1842	841.3	1.48082	1280
313.15 K, x1 = 0.2935	837.2	1.4759	1283
313.15 K, x1 = 0.3891	833.8	1.47166	1287
313.15 K, x1 = 0.4882	830.4	1.46743	1291
313.15 K, x1 = 0.5857	827.5	1.4634	1296
313.15 K, x1 = 0.6847	824.6	1.45952	1302
313.15 K, x1 = 0.791	822.1	1.45559	1309
313.15 K, x1 = 0.8911	820.3	1.45214	1317
313.15 K, x1 = 0.939	819.7	1.45053	1321
313.15 K, x1 = 1	819.2	1.44877	1325

Cc1cc(C)cc(C)c1 [1,3,5-trimethylbenzene] + C1CCCC1
x2 = 0
Conditions	mass density, [2] [kg/m3]	refractive index, [1]	speed of sound, [2] [m/s]
298.15 K	861.1	1.49693	1336
313.15 K	848.8	1.48923	1277
